Experimental data as given in patent US20230372498A1, “PLK1 SELECTIVE DEGRADATION INDUCING COMPOUND” (UPPTHERA, priority 2020, published 2023).

Biological target: T1, PLK1 (Homo sapiens, UniProt P53350)
T1 construct: endogenous in cells; host or cells: HeLa
Assay: PLK1 protein degradation in HeLa cells, Western blotting (PLK1/GAPDH ratio)
Assay type: cell-based
Settings: 6 hours compound incubation; for DC50: measured only if the grade of Dmax is A or B; for Dmax: thymidine block and release, 10 points three-fold from 3 μM, PLK1 to GAPDH ratio, read-out: Dmax
Source text: The HeLa cell line was purchased from Korea Cell Line Bank (KCLB), Seoul, Korea. The passage in cell culture was maintained at P115 to P125.
For cell culture, DMEM (Gibco, Cat. No. 1195-65; Lot. No. 2085318), FBS (Gibco, Cat. No. 16000-044; Lot. No. 2097593), Penicillin/Streptomycin (PS) (Gibco, Cat. No. 15140-122; Lot. No. 2058855), 100 mm^2 cell culture dish (SPL, Cat. No. 20100), 150 mm^2 cell culture dish (SPL, Cat. No. 20150), 12-well culture plate (SPL, Cat. No. 30012), PBS pH 7.4 (Gibco, Cat. No. 10010-023; Lot. No. 2085080), TrypLE™ Express (Gibco, Cat. No. 12605-010; Lot No. 2070638), Counting Chamber (Hematocytometer) (Hirschmann, Cat. No. 8100204), and 0.4% Trypan Blue Solution (DYNEBIO, Cat. No. CBT3710; Lot. No. 20190723) were used.
2×10^5 cells were seeded for each well of a 12-well plate (SPL), and the cells were cultured in the culture medium in a total volume of 2 ml.
The compounds of Examples were completely dissolved in DMSO and used in the experiment, and thymidine was completely dissolved in DW and used in the experiment. For thymidine block, the products were treated with 2 mM of thymidine (Sigma-Aldrich Cat. No. T9250-5G) and then incubated for 24 hours.
For release and chemical treatment, the medium was suctioned and washed 3 times with 1×PBS. Complete media was added, followed by incubation for 4 hours in a CO2 incubator. Each compound was diluted three folds from the highest concentration of 3 μM to the lowest concentration in 10 points and then incubated for 6 hours again.
For SDS-PAGE and Western blotting, 1×RIPA lysis buffer (Rockland, Cat. No. MB-030-0050; Lot no. 39751), 100× Protease Inhibitor Cocktail (Quartett, Cat. No. PPI1015; Lot no. PCO50038424), Pierce™ BCA protein assay kit (ThermoScientific, Cat. No. 23225; Lot no. UC276876), albumin standard (ThermoScientific, Cat. No. 23209; Lot no. UB269561), 4-15% Mini-PROTEAN TGX stain-free gel (Bio-rad, Cat. No. 4568085; Lot no. L007041B), 10× Tris/Glycine/SDS buffer (Bio-rad, Cat. No. 1610732; Lot no. 10000044375B); 10×TBS (Bio-rad, Cat. No. 1706435; Lot no. 1000045140B), 10% Tween 20 (Cat. No. 1610781; Lot no. L004152B), Color protein standard broad range (NEB, Cat. No. P7719S; Lot no. 10040349), 4× Laemmli sample buffer (Bio-rad, Cat. No. 1610747; Lot no. L004133B), β-mercaptoethanol (Sigma-Aldrich, Cat. No. M3148; Lot no. 60-24-2), SuperBlock™ T20 (TBS) blocking buffer (ThermoScientific, Cat. No. 37536; Lot no. UC282578), 1M sodium azide solution (Sigma-Aldrich, Cat. No. 08591-1 mL-F; Lot no. BCBV4989), α-Rabbit pAb to Ms IgG (abcam, Cat. No. ab97046; Lot no. GR3252115-1), α-Goat pAb to Rb IgG (CST, Cat. No. 7074S; Lot no. 28), α-GAPDH (abcam, Cat. No. ab8245; Lot no. GR3275542-2), α-Plk1 (CST, Cat. No. 208G4), α-BRD4 (CST, Cat. No. 13440S), ECL™ Prime western blotting reagents (GE Healthcare, Cat. No. RPN2232; Lot no. 17001655), Ponceau S solution (Sigma-Aldrich, Cat. No. P7170; Lot no. SLBV4112), Difco™ Skim milk (BD, Cat. No. 232100; Lot no. 8346795), and iBlot® 2 NC Regular stacks (Invitrogen, Cat. No. IB323001; Lot no. 2NR110619-02) were used.
For cell harvesting, the cells were first separated from the plate using trypsin and then washed with the medium and PBS. Specifically, the medium was suctioned off and washed with 1 mL of PBS, and PBS was suctioned off. The cells were treated with 0.5 mL TrypLE™ Express at 37° C. for 7 minutes to separate the cells, and then 0.5 mL of complete medium was added to collect 1 mL of cell culture solution. Then, 1 mL of the cell collection solution was centrifuged at 8,000 rpm for 120 seconds, and the supernatant was removed. After washing with 0.2 mL of PBS, the PBS was removed.
For cell lysis, a lysis buffer was added and cell debris was removed to obtain a cell lysate. Specifically, the cells were treated with 70 μL of 1×RIPA buffer containing a protease inhibitor and incubated for 30 minutes on ice. Then, the cells were centrifuged at 4° C. and 15,000 rpm for 10 minutes to obtain a cell lysate. […]

T1 sequence (P53350 whole entry): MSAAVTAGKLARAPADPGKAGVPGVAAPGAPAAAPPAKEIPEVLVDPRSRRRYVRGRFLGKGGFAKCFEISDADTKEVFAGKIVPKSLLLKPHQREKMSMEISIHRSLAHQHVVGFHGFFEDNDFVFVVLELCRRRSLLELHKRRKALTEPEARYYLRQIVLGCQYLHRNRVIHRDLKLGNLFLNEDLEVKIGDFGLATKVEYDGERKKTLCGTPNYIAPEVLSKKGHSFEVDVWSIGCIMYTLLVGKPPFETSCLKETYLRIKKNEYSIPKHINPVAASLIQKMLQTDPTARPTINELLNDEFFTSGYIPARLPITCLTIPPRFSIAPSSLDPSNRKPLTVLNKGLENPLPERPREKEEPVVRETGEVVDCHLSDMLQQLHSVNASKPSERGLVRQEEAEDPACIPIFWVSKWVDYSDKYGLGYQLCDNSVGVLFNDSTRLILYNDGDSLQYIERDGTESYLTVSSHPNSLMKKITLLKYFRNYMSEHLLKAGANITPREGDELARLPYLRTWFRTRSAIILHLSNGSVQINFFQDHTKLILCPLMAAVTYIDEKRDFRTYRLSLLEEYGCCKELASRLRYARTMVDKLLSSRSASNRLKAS

SMILES | DC50 [nM] | Dmax [%]
COc1cc(C(=O)NC2CCN(CCOCCCCCCCCOCCNc3cccc4c3C(=O)N(C3CCC(=O)NC3=O)C4=O)CC2)c(F)cc1Nc1ncc2c(n1)N(C1CCCC1)CC(F)(F)C(=O)N2C (stereo not drawn) [Compound 22, 4-((9-cyclopentyl-7,7-difluoro-5-methyl-6-oxo-6,7,8,9-tetrahydro-5H-pyrimido[4,5-b][1,4]diazepin-2-yl)amino)-N-(1-(2-((8-(2-((2-(2,6-dioxopiperidin-3-yl)-1,3-dioxoisoindolin-4-yl)amino)ethoxy)octyl)oxy)ethyl)piperidin-4-yl)-2-fluoro-5-methoxybenzamide] | ≤ 500 | 60 to 80
COc1cc(C(=O)NC2CCN(CCCCOCCCOCCOCCNc3cccc4c3C(=O)N(C3CCC(=O)NC3=O)C4=O)CC2)c(F)cc1Nc1ncc2c(n1)N(C1CCCC1)CC(F)(F)C(=O)N2C (stereo not drawn) [Compound 23, 4-((9-cyclopentyl-7,7-difluoro-5-methyl-6-oxo-6,7,8,9-tetrahydro-5H-pyrimido[4,5-b][1,4]diazepin-2-yl)amino)-N-(1-(4-(3-(2-(2-((2-(2,6-dioxopiperidin-3-yl)-1,3-dioxoisoindolin-4-yl)amino)ethoxy)ethoxy)propoxy)butyl)piperidin-4-yl)-2-fluoro-5-methoxybenzamide] | ≤ 50 | ≥ 80
COc1cc(C(=O)NC2CCN(CCCOCCCOCCCOCCNc3cccc4c3C(=O)N(C3CCC(=O)NC3=O)C4=O)CC2)c(F)cc1Nc1ncc2c(n1)N(C1CCCC1)CC(F)(F)C(=O)N2C (stereo not drawn) [Compound 24, 4-((9-cyclopentyl-7,7-difluoro-5-methyl-6-oxo-6,7,8,9-tetrahydro-5H-pyrimido[4,5-b][1,4]diazepin-2-yl)amino)-N-(1-(3-(3-(3-(2-((2-(2,6-dioxopiperidin-3-yl)-1,3-dioxoisoindolin-4-yl)amino)ethoxy)propoxy)propoxy)propyl)piperidin-4-yl)-2-fluoro-5-methoxybenzamide] | ≤ 50 | ≥ 80
COc1cc(C(=O)NC2CCN(CCOCCCOCCOCCOCCNc3cccc4c3C(=O)N(C3CCC(=O)NC3=O)C4=O)CC2)c(F)cc1Nc1ncc2c(n1)N(C1CCCC1)CC(F)(F)C(=O)N2C (stereo not drawn) [Compound 25, 4-((9-cyclopentyl-7,7-difluoro-5-methyl-6-oxo-6,7,8,9-tetrahydro-5H-pyrimido[4,5-b][1,4]diazepin-2-yl)amino)-N-(1-(1-((2-(2,6-dioxopiperidin-3-yl)-1,3-dioxoisoindolin-4-yl)amino)-3,6,9,13-tetraoxapentadecan-15-yl)piperidin-4-yl)-2-fluoro-5-methoxybenzamide] | ≤ 50 | ≥ 80
COc1cc(C(=O)NC2CCN(CCOCCOCC(=O)Nc3cccc4c3C(=O)N(C3CCC(=O)NC3=O)C4=O)CC2)c(F)cc1Nc1ncc2c(n1)N(C1CCCC1)CC(F)(F)C(=O)N2C (stereo not drawn) [Compound 26, 4-((9-cyclopentyl-7,7-difluoro-5-methyl-6-oxo-6,7,8,9-tetrahydro-5H-pyrimido[4,5-b][1,4]diazepin-2-yl)amino)-N-(1-(2-(2-(2-((2-(2,6-dioxopiperidin-3-yl)-1,3-dioxoisoindolin-4-yl)amino)-2-oxoethoxy)ethoxy)ethyl)piperidin-4-yl)-2-fluoro-5-methoxybenzamide] | – | < 60

Next, values leading:

DC50 [nM] | Dmax [%] | SMILES
≤ 500 | 60 to 80 | COc1cc(C(=O)NC2CCN(CCOCCOCCOCCOCC(=O)Nc3cccc4c3C(=O)N(C3CCC(=O)NC3=O)C4=O)CC2)c(F)cc1Nc1ncc2c(n1)N(C1CCCC1)CC(F)(F)C(=O)N2C (stereo not drawn) [Compound 27, 14-(4-(4-((9-cyclopentyl-7,7-difluoro-5-methyl-6-oxo-6,7,8,9-tetrahydro-5H-pyrimido[4,5-b][1,4]diazepin-2-yl)amino)-2-fluoro-5-methoxybenzamido)piperidin-1-yl)-N-(2-(2,6-dioxopiperidin-3-yl)-1,3-dioxoisoindolin-4-yl)-3,6,9,12-tetraoxatetradecanamide]
≤ 500 | 60 to 80 | COc1cc(C(=O)NC2CCN(CCOCCCCCCCCOCC(=O)Nc3cccc4c3C(=O)N(C3CCC(=O)NC3=O)C4=O)CC2)c(F)cc1Nc1ncc2c(n1)N(C1CCCC1)CC(F)(F)C(=O)N2C (stereo not drawn) [Compound 28, 4-((9-cyclopentyl-7,7-difluoro-5-methyl-6-oxo-6,7,8,9-tetrahydro-5H-pyrimido[4,5-b][1,4]diazepin-2-yl)amino)-N-(1-(2-((8-(2-((2-(2,6-dioxopiperidin-3-yl)-1,3-dioxoisoindolin-4-yl)amino)-2-oxoethoxy)octyl)oxy)ethyl)piperidin-4-yl)-2-fluoro-5-methoxybenzamide]
≤ 50 | ≥ 80 | COc1cc(C(=O)NC2CCN(CCOCCNC(=O)CNc3cccc4c3C(=O)N(C3CCC(=O)NC3=O)C4=O)CC2)c(F)cc1Nc1ncc2c(n1)N(C1CCCC1)CC(F)(F)C(=O)N2C (stereo not drawn) [Compound 29, 4-((9-cyclopentyl-7,7-difluoro-5-methyl-6-oxo-6,7,8,9-tetrahydro-5H-pyrimido[4,5-b][1,4]diazepin-2-yl)amino)-N-(1-(2-(2-(2-((2-(2,6-dioxopiperidin-3-yl)-1,3-dioxoisoindolin-4-yl)amino)acetamido)ethoxy)ethyl)piperidin-4-yl)-2-fluoro-5-methoxybenzamide]
≤ 50 | ≥ 80 | COc1cc(C(=O)NC2CCN(CCOCCOCCOCCNC(=O)CNc3cccc4c3C(=O)N(C3CCC(=O)NC3=O)C4=O)CC2)c(F)cc1Nc1ncc2c(n1)N(C1CCCC1)CC(F)(F)C(=O)N2C (stereo not drawn) [Compound 30, 4-((9-cyclopentyl-7,7-difluoro-5-methyl-6-oxo-6,7,8,9-tetrahydro-5H-pyrimido[4,5-b][1,4]diazepin-2-yl)amino)-N-(1-(1-((2-(2,6-dioxopiperidin-3-yl)-1,3-dioxoisoindolin-4-yl)amino)-2-oxo-6,9,12-trioxa-3-azatetradecan-14-yl)piperidin-4-yl)-2-fluoro-5-methoxybenzamide]
– | < 60 | COc1cc(C(=O)NC2CCN(C(=O)COCCNc3cccc4c3C(=O)N(C3CCC(=O)NC3=O)C4=O)CC2)c(F)cc1Nc1ncc2c(n1)N(C1CCCC1)CC(F)(F)C(=O)N2C (stereo not drawn) [Compound 31, 4-((9-cyclopentyl-7,7-difluoro-5-methyl-6-oxo-6,7,8,9-tetrahydro-5H-pyrimido[4,5-b][1,4]diazepin-2-yl)amino)-N-(1-(2-(2-((2-(2,6-dioxopiperidin-3-yl)-1,3-dioxoisoindolin-4-yl)amino)ethoxy)acetyl)piperidin-4-yl)-2-fluoro-5-methoxybenzamide]
